# From patent US4774232A, “Bile-substituting method of treatment for the promotion of fat digestion” (Chinoin Gyogyszer Es Vegyeszeti Termak Ek Gyara Rt, priority 1985, dated 1988)
# What was measured:
# lipase = assay: In vitro enzymatic hydrolysis of triglycerides: glycerol trioleate, lipase; assay type: biochemical; conditions: 37° C.
# Procedure: In an aqueous medium, lipase is capable to split triglycerides only at an extraordinarily low rate. Therefore, an organic solvent should be added to the system, by which the solubility of the triglycerides is increased, but the enzyme activity is diminished. Alternatively, some type of detergent, suitably bile has to be used. The effect of bile was compared to that of DIMEB at 37° C. in such a way that, the quantity of the formed free fatty acids in the samples taken from the reaction mixture at various intervals was titrated by using sodium hydroxide solution. The composition of the reaction mixture was as follows:
# a total volume of 1.5 ml contained 4 μmoles of the substrate (triolein or olive oil), 10 mg of bovine serum albumin, 75 μmoles of sodium chloride, 50 μmoles of a phosphate buffer solution (pH 7.4) and 0.25 ml of an enzyme solution. A lipase of the Serva Company (in an 1 mg/10 ml solution) or a pancreas powder (0.5 g was suspended in 10 ml of distilled water and the slightly opalescent solution obtained after filtration was used) were employed as enzyme preparations.
# The composition of the solutions to be tested were as follows:
# 0.5 ml of buffer+10 mg of serum albumin+3.54 mg of substrate+0.25 ml of enzyme solution plus
# (a) 0.25 ml of diluted bile+0.50 ml of distilled water; or
# (b) 50 mg of dimethyl-β-cyclodextrin dissolved in 0.75 ml of water; or […]
# intact rats = assay: Absorption of 3H-stearic acid with oral DIMEB in intact rats; assay type: in vivo, CFY female rats; conditions: for Radioactivity in 10 ml of blood: 11.3 mg 3H-stearic acid + 50 mg DIMEB oral
# Procedure: The effect of DIMEB on the absorption of ^3 H-stearic acid was studied in intact rats. The aim of this experiment was to make clear if the absorption of stearic acid was stimulated by DIMEB under the conditions of physiological bile functions. The animals were starved overnight before and during the experiment but received water ad libitum. One group of the experimental animals (CFY female rats with an average body weight of 180 g; 3 animals ) received 13 mg of ^3 H-stearic acid (specific radioactivity: 147.22 kBq/mg), whereas the other group (3 animals) was given 11.3 mg of ^3 H-stearic acid and 50 mg of DIMEB in 2 ml of distilled water. The substances were suspended in the distilled water ultrasonically. Thereafter, the radioactivity level of the blood was measured at various time intervals by using the liquid scintillation method (Table X).
# bile-deficient rats = assay: Absorption of 3H-stearic acid with oral DIMEB in bile-deficient rats (Example 10); assay type: in vivo; conditions: for Radioactivity in 10 ml of blood: 14.7 mg 3H-stearic acid + 50 mg DIMEB oral
# Procedure: The substitution of the bile by DIMEB in bile-deficiency was studied in rats after ligating the bile duct.
# After being starved for 24 hours, the animals were subjected to the bile duct-ligation under nembutal anaesthesia. The absorption was investigated in the 48th hour after starving the animals overnight. The animals were also starved in the course of the examination; but received water ad libitum. One group (3 animals) received 12.8 mg of ^3 H-stearic acid (specific radioactivity: 171.12 kBq/mg), whereas the other group (3 animals) was administered 14.7 mg of ^3 H-stearic acid and 50 mg of DIMEB in 2 ml of distilled water. The substances were suspended in the distilled water ultrasonically. Thereafter, the radioactivity level of the blood was measured at various intervals, by using the liquid scintillation method (Table XI).
# mice = assay: Toxicity on mice; assay type: in vivo; conditions: doses up to 3000 mg/kg of body-weight
# [1] = Absorption and elimination of DIMEB in animal experiments; assay type: in vivo
smiles,measurement,setting,value
"COC[C@H]1O[C@@H]2O[C@H]3[C@H](O)[C@@H](OC)[C@@H](O[C@H]4[C@H](O)[C@@H](OC)[C@@H](O[C@H]5[C@H](O)[C@@H](OC)[C@@H](O[C@H]6[C@H](O)[C@@H](OC)[C@@H](O[C@H]7[C@H](O)[C@@H](OC)[C@@H](O[C@H]8[C@H](O)[C@@H](OC)[C@@H](O[C@H]1[C@H](O)[C@H]2OC)O[C@@H]8COC)O[C@@H]7COC)O[C@@H]6COC)O[C@@H]5COC)O[C@@H]4COC)O[C@@H]3COC [DIMEB, heptakis(2,6-di-O-methyl)-β-cyclodextrin]",0.005 N NaOH consumed,"lipase; series Bile II, glycerol trioleate, reaction time 1 hour",0.34 mL
same,0.005 N NaOH consumed,"lipase; series Bile II, glycerol trioleate, reaction time 2 hour",0.80 mL
same,0.005 N NaOH consumed,"lipase; series Bile II, glycerol trioleate, reaction time 3 hour",1.16 mL
same,0.005 N NaOH consumed,"lipase; series Bile II, glycerol trioleate, reaction time 21 hour",1.86 mL
same,0.005 N NaOH consumed,"lipase; series Bile III, glycerol triolate, reaction time 1 hour",0.28 mL
same,0.005 N NaOH consumed,"lipase; series Bile III, glycerol triolate, reaction time 2 hour",0.68 mL
same,0.005 N NaOH consumed,"lipase; series Bile III, glycerol triolate, reaction time 4 hour",1.20 mL
same,Radioactivity in 10 ml of blood,"intact rats; 1 h, animal 4",1.71 percentage
same,Radioactivity in 10 ml of blood,"intact rats; 1 h, animal 5",1.74 percentage
same,Radioactivity in 10 ml of blood,"intact rats; 1 h, animal 6",2.23 percentage
same,Radioactivity in 10 ml of blood,"intact rats; 1 h, mean",1.89 percentage
same,Radioactivity in 10 ml of blood,"intact rats; 2 h, animal 4",1.84 percentage
same,Radioactivity in 10 ml of blood,"intact rats; 2 h, animal 5",1.88 percentage
same,Radioactivity in 10 ml of blood,"intact rats; 2 h, animal 6",2.00 percentage
same,Radioactivity in 10 ml of blood,"intact rats; 2 h, mean",1.91 percentage
same,Radioactivity in 10 ml of blood,"intact rats; 3 h, animal 4",2.03 percentage
same,Radioactivity in 10 ml of blood,"intact rats; 3 h, animal 5",1.75 percentage
same,Radioactivity in 10 ml of blood,"intact rats; 3 h, animal 6",2.13 percentage
same,Radioactivity in 10 ml of blood,"intact rats; 3 h, mean",1.97 percentage
same,Radioactivity in 10 ml of blood,"intact rats; 4 h, animal 4",2.12 percentage
same,Radioactivity in 10 ml of blood,"intact rats; 4 h, animal 5",1.71 percentage
same,Radioactivity in 10 ml of blood,"intact rats; 4 h, animal 6",1.99 percentage
same,Radioactivity in 10 ml of blood,"intact rats; 4 h, mean",1.94 percentage
same,Radioactivity in 10 ml of blood,"intact rats; 5 h, animal 4",2.10 percentage
same,Radioactivity in 10 ml of blood,"intact rats; 5 h, animal 5",1.76 percentage
same,Radioactivity in 10 ml of blood,"intact rats; 5 h, animal 6",2.00 percentage
same,Radioactivity in 10 ml of blood,"intact rats; 5 h, mean",1.95 percentage
same,Radioactivity in 10 ml of blood,"intact rats; 6 h, animal 4",2.16 percentage
same,Radioactivity in 10 ml of blood,"intact rats; 6 h, animal 5",1.75 percentage
same,Radioactivity in 10 ml of blood,"intact rats; 6 h, animal 6",2.04 percentage
same,Radioactivity in 10 ml of blood,"intact rats; 6 h, mean",1.98 percentage
same,Radioactivity in 10 ml of blood,"intact rats; 8 h, animal 4",2.16 percentage
same,Radioactivity in 10 ml of blood,"intact rats; 8 h, animal 5",1.84 percentage
same,Radioactivity in 10 ml of blood,"intact rats; 8 h, animal 6",1.94 percentage
same,Radioactivity in 10 ml of blood,"intact rats; 8 h, mean",1.98 percentage
same,Radioactivity in 10 ml of blood,"intact rats; 10 h, animal 4",2.20 percentage
same,Radioactivity in 10 ml of blood,"intact rats; 10 h, animal 5",2.02 percentage
same,Radioactivity in 10 ml of blood,"intact rats; 10 h, animal 6",2.21 percentage
same,Radioactivity in 10 ml of blood,"intact rats; 10 h, mean",2.14 percentage
same,Radioactivity in 10 ml of blood,"intact rats; 24 h, animal 4",2.84 percentage
same,Radioactivity in 10 ml of blood,"intact rats; 24 h, animal 5",2.94 percentage
same,Radioactivity in 10 ml of blood,"intact rats; 24 h, animal 6",2.39 percentage
same,Radioactivity in 10 ml of blood,"intact rats; 24 h, mean",2.72 percentage
same,"Radioactivity of the blood, percent of the administered activity","intact rats; 24th hour, both groups",2.7%
same,Absorption-enhancing effect on 3H-stearic acid,"intact rats; physiological bile functions, 50 mg DIMEB",did not show any absorption-enhancing effect
same,Radioactivity in 10 ml of blood,"bile-deficient rats; 1 h, animal 4",0.86 percentage
same,Radioactivity in 10 ml of blood,"bile-deficient rats; 1 h, animal 5",3.45 percentage
same,Radioactivity in 10 ml of blood,"bile-deficient rats; 1 h, animal 6",1.61 percentage
same,Radioactivity in 10 ml of blood,"bile-deficient rats; 1 h, mean",1.97 percentage
same,Radioactivity in 10 ml of blood,"bile-deficient rats; 2 h, animal 4",1.05 percentage
same,Radioactivity in 10 ml of blood,"bile-deficient rats; 2 h, animal 5",3.25 percentage
same,Radioactivity in 10 ml of blood,"bile-deficient rats; 2 h, animal 6",2.56 percentage
same,Radioactivity in 10 ml of blood,"bile-deficient rats; 2 h, mean",2.29 percentage
same,Radioactivity in 10 ml of blood,"bile-deficient rats; 3 h, animal 4",1.14 percentage
same,Radioactivity in 10 ml of blood,"bile-deficient rats; 3 h, animal 5",3.22 percentage
same,Radioactivity in 10 ml of blood,"bile-deficient rats; 3 h, animal 6",2.39 percentage
same,Radioactivity in 10 ml of blood,"bile-deficient rats; 3 h, mean",2.25 percentage
same,Radioactivity in 10 ml of blood,"bile-deficient rats; 4 h, animal 4",1.19 percentage
same,Radioactivity in 10 ml of blood,"bile-deficient rats; 4 h, animal 5",3.06 percentage
same,Radioactivity in 10 ml of blood,"bile-deficient rats; 4 h, animal 6",2.28 percentage
same,Radioactivity in 10 ml of blood,"bile-deficient rats; 4 h, mean",2.18 percentage
same,Radioactivity in 10 ml of blood,"bile-deficient rats; 5 h, animal 4",1.24 percentage
same,Radioactivity in 10 ml of blood,"bile-deficient rats; 5 h, animal 5",3.08 percentage
same,Radioactivity in 10 ml of blood,"bile-deficient rats; 5 h, animal 6",2.27 percentage
same,Radioactivity in 10 ml of blood,"bile-deficient rats; 5 h, mean",2.20 percentage
same,Radioactivity in 10 ml of blood,"bile-deficient rats; 6 h, animal 4",1.25 percentage
same,Radioactivity in 10 ml of blood,"bile-deficient rats; 6 h, animal 5",2.91 percentage
same,Radioactivity in 10 ml of blood,"bile-deficient rats; 6 h, animal 6",2.56 percentage
same,Radioactivity in 10 ml of blood,"bile-deficient rats; 6 h, mean",2.24 percentage
same,Radioactivity in 10 ml of blood,"bile-deficient rats; 7 h, animal 4",1.33 percentage
same,Radioactivity in 10 ml of blood,"bile-deficient rats; 7 h, animal 5",3.03 percentage
same,Radioactivity in 10 ml of blood,"bile-deficient rats; 7 h, animal 6",2.67 percentage
same,Radioactivity in 10 ml of blood,"bile-deficient rats; 7 h, mean",2.34 percentage
same,Radioactivity in 10 ml of blood,"bile-deficient rats; 8 h, animal 4",1.37 percentage
same,Radioactivity in 10 ml of blood,"bile-deficient rats; 8 h, animal 5",3.13 percentage
same,Radioactivity in 10 ml of blood,"bile-deficient rats; 8 h, animal 6",2.58 percentage
same,Radioactivity in 10 ml of blood,"bile-deficient rats; 8 h, mean",2.36 percentage
same,Radioactivity in 10 ml of blood,"bile-deficient rats; 10 h, animal 4",1.29 percentage
same,Radioactivity in 10 ml of blood,"bile-deficient rats; 10 h, animal 5",3.26 percentage
same,Radioactivity in 10 ml of blood,"bile-deficient rats; 10 h, animal 6",2.67 percentage
same,Radioactivity in 10 ml of blood,"bile-deficient rats; 10 h, mean",2.41 percentage
same,Radioactivity in 10 ml of blood,"bile-deficient rats; 24 h, animal 4",1.60 percentage
same,Radioactivity in 10 ml of blood,"bile-deficient rats; 24 h, animal 5",4.56 percentage
same,Radioactivity in 10 ml of blood,"bile-deficient rats; 24 h, animal 6",4.00 percentage
same,Radioactivity in 10 ml of blood,"bile-deficient rats; 24 h, mean",3.39 percentage
same,Blood level relative to animals treated with stearic acid only,bile-deficient rats; 24th hour,1.4 times
same,Toxic phenomena,mice,no toxic phenomena
same,Time to complete elimination through the kidneys,[1]; after intravenous administration,≤ 6 h
same,Absorption after oral administration,"[1]; animal experiments, oral",not absorbed
